Results taken from patent US20060160887A1, “Medicinal composition” (Kyowa Hakko Kogyo Co., Ltd., priority 2003, published 2006).

Assays:
[1] = test system: A-type potassium channels; conditions: known from WO02/078523 and WO02/078710; cited from earlier work
[2] = test system: premicturition contractions in rats with spinal cord injury; test: Inhibitory activity on detrusor overactivity (cystometry, premicturition contractions) in rats with spinal cord injury; assay type: in vivo, rat; conditions: p.o.; for amplitude of premicturition contractions (relative value, before administration = 100) / frequency of premicturition contractions (relative value, before administration = 100): female SD rats with spinal cord injury, mean ± SE, n = 9; for effect on premicturition contractions (amplitude and frequency of premicturition contractions), in words: rats with spinal cord injury, summary of Tables 1 and 2
Text: Spinal cord was injured in the rats.

[3] = Compound (Ia) 0.01 mg/kg, after 1 hour
[4] = Compound (Ia) 0.01 mg/kg, after 3 hours
[5] = Compound (Ia) 0.01 mg/kg, after 5 hours
[6] = Tolterodine 3 mg/kg, after 1 hour
[7] = Tolterodine 3 mg/kg, after 3 hours
[8] = Tolterodine 3 mg/kg, after 5 hours

| Structure (SMILES) | effect on A-type potassium channels, in words [1] | amplitude of premicturition contractions (relative value, before administration = 100) [2, 3] [%] | frequency of premicturition contractions (relative value, before administration = 100) [2, 3] [%] | amplitude of premicturition contractions (relative value, before administration = 100) [2, 4] [%] | frequency of premicturition contractions (relative value, before administration = 100) [2, 4] [%] | amplitude of premicturition contractions (relative value, before administration = 100) [2, 5] [%] | frequency of premicturition contractions (relative value, before administration = 100) [2, 5] [%] | effect on premicturition contractions (amplitude and frequency of premicturition contractions), in words [2] | amplitude of premicturition contractions (relative value, before administration = 100) [2, 6] [%] | frequency of premicturition contractions (relative value, before administration = 100) [2, 6] [%] | amplitude of premicturition contractions (relative value, before administration = 100) [2, 7] [%] | frequency of premicturition contractions (relative value, before administration = 100) [2, 7] [%] | amplitude of premicturition contractions (relative value, before administration = 100) [2, 8] [%] | frequency of premicturition contractions (relative value, before administration = 100) [2, 8] [%] |
| --- | --- | --- | --- | --- | --- | --- | --- | --- | --- | --- | --- | --- | --- | --- |
| CC(O)(C(=O)Nc1cccc2c1C(=O)c1sccc1CS2(=O)=O)C(F)(F)F (stereo not drawn) [Compound (I), 3,3,3-trifluoro-2-hydroxy-2-methyl-N-(5,5,10-trioxo-4,10-dihydrothieno[3,2-c][1]benzothiepin-9-yl)propanamide] | opening effect of A-type potassium channels |  |  |  |  |  |  |  |  |  |  |  |  |  |
| C[C@](O)(C(=O)Nc1cccc2c1C(=O)c1sccc1CS2(=O)=O)C(F)(F)F [Compound (Ia), (S)-(+)-3,3,3-trifluoro-2-hydroxy-2-methyl-N-(5,5,10-trioxo-4,10-dihydrothieno[3,2-c][1]benzothiepin-9-yl) propanamide] |  | 71.9 ± 7.3 | 61.6 ± 9.8 | 62.6 ± 7.3 | 53.2 ± 4.9 | 65.1 ± 7.2 | 56.0 ± 8.3 | inhibited premicturition contractions |  |  |  |  |  |  |
| Cc1ccc(O)c([C@H](CCN(C(C)C)C(C)C)c2ccccc2)c1 [Tolterodine, tolterodine, reference compound] |  |  |  |  |  |  |  | inhibited premicturition contractions | 105.9 ± 24.3 | 70.4 ± 11.6 | 79.6 ± 9.7 | 73.4 ± 8.2 | 70.3 ± 11.9 | 75.5 ± 12.0 |
